Results on 18 molecules are retold here after BindingDB's records for doi:10.7270/Q2930RSV (Burnham Center For Chemical Genomics, 2012).

The term IC50 denotes the concentration that inhibits the measured activity by half. A low value points to greater potency.

The test deals with T1, Caspase-3 (Homo sapiens, UniProt P42574).
T1 sequence (P42574 whole entry): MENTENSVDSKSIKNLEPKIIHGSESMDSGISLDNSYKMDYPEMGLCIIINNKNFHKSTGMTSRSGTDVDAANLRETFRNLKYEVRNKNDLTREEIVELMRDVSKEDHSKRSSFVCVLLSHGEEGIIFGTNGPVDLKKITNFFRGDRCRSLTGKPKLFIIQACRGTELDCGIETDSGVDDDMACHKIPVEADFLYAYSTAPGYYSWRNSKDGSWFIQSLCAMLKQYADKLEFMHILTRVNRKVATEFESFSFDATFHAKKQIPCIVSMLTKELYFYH
For `COc1ccc(NC(=O)NNc2cc(N3CCOCC3)nc(N3CCOCC3)n2)cc1` [MLS000765810], the half-inhibitory concentration (IC50) is over 100 µM.

Molecule `O=[N+]([O-])c1ccc(-n2[n-]c(=[N+]3CCOCC3)cc2O)cc1` [5-(4-morpholinyl)-2-(4-nitrophenyl)-4H-pyrazol-3-one] displayed an IC50 of over 100 µM.

`O=C(NNc1cc(N2CCCC2)nc(N2CCCC2)n1)c1ccc([N+](=O)[O-])cc1` [N'-(2,6-dipyrrolidin-1-ylpyrimidin-4-yl)-4-nitrobenzohydrazide]: the IC50 is over 100 µM.

Regarding `COC(=O)c1ccc(C)cc1C1CN=NC12Cc1cc(C)ccc1C2=O` (stereo not drawn) [4-methyl-2-(6-methyl-3-oxo-4'-spiro[1H-indene-2,5'-3,4-dihydropyrazole]yl)benzoic acid methyl ester], the IC50 was over 100 µM.

Regarding `CCN(CC)c1ccc(NC2CC(=O)N(CCc3ccc(OC)cc3)C2=O)cc1` (stereo not drawn) [3-[4-(diethylamino)anilino]-1-[2-(4-methoxyphenyl)ethyl]pyrrolidine-2,5-dione], the concentration for half-maximal inhibition (IC50) is over 100 µM.

`CC(C)(C)c1ccc(C(=O)NNc2cc(N3CCCCC3)nc(N3CCCCC3)n2)cc1` showed an IC50 of over 100 µM.

Consider `CCCCOc1cc(NCc2ccccc2)c2ncn(C(C)C)c2c1`, for which the IC50 was over 100 µM.

The molecule `NS(=O)(=O)c1ccc(CCNC(=O)COC(=O)c2ccc([N+](=O)[O-])o2)cc1` registered an IC50 of over 100 µM.

As to `CN(C)c1ccc(NC(=O)c2ccc(Cn3cc([N+](=O)[O-])cn3)cc2)cc1` [MLS000727576], the IC50 was over 100 µM.

In the case of `Cc1[nH]n(-c2ccccc2)c(=O)c1S(=O)(=O)c1ccccc1` [5-methyl-2-phenyl-4-(phenylsulfonyl)-1H-pyrazol-3-one], the IC50 was over 100 µM.

`CN(C)c1cc(N=NCc2ccccc2)nc(N(C)C)n1` [N2,N2,N4,N4-tetramethyl-N6-[(phenylmethylidene)amino]pyrimidine-2,4,6-triamine] displayed an IC50 of 50.7 µM.

Regarding `CC(NC(=O)COC(=O)c1ccc([N+](=O)[O-])s1)c1ccccc1` (stereo not drawn) [[2-oxo-2-(1-phenylethylamino)ethyl] 5-nitrothiophene-2-carboxylate], the half-inhibitory concentration (IC50) is over 100 µM.

`CCC(=O)c1ccc(OCc2cn(CC(=O)c3ccc(O)cc3)nn2)cc1` [1-[4-[[1-[2-(4-hydroxyphenyl)-2-oxoethyl]triazol-4-yl]methoxy]phenyl]propan-1-one]: the IC50 was over 100 µM.

In the case of `COc1ccc(-c2csc(CCn3[nH]c(C)cc3=O)n2)cc1` [SMR000347900], the IC50 was over 100 µM.

Take `O=C(CCc1ccccc1)NNc1cc(N2CCCCC2)nc(N2CCCCC2)n1` [N'-[2,6-di(piperidin-1-yl)pyrimidin-4-yl]-3-phenylpropanehydrazide]: the IC50 was over 100 µM.

For the molecule `N#CC1(CCCN2CCCCC2)c2ccccc2CCc2ccccc21` [MLS001178552], the IC50 was over 100 µM.

`CC1(C)Cc2c(nn(-c3ccccc3)c(=N)c2C#N)CO1` came in with a 50% inhibitory concentration (IC50) of 1.09 µM.

`O=C(COC(=O)c1ccc([N+](=O)[O-])s1)NCCc1ccccc1` [MLS002159124] displayed an IC50 of over 100 µM.
